Data taken from DBAASP.
Values after ≈ are worked out from the molar mass of the structure shown.

How the values were obtained:
Assay in all cases: ≥ marks a high value that may be exact or a test limit, other limits are often not marked, values filed in µg/mL are converted to µM
[1] = system: Trichosporon beigelii KCTC 7707
[2] = system: Candida albicans TIMM 1768
[3] = system: Saccharomyces cerevisiae KCTC 7296
[4] = system: Aspergillus fumigatus KCTC 4165
[5] = system: Streptococcus pyogenes KCTC 3096
[6] = system: Escherichia coli KCTC 1682
[7] = system: Staphylococcus aureus KCTC 1621
[8] = system: Pseudomonas aeruginosa KCTC 1637
[9] = system: Salmonella typhimurium KCTC 1926
[10] = system: Bacillus subtilis KCTC 1918

| MIC [1] | MIC [2] | MIC [3] | MIC [4] | MIC [5] | MIC [6] | MIC [7] | MIC [8] | MIC [9] | MIC [10] | SMILES |
| --- | --- | --- | --- | --- | --- | --- | --- | --- | --- | --- |
| 10 µM (≈ 30 µg/mL) | 14.1 µM (≈ 42.5 µg/mL) | 10 µM (≈ 30 µg/mL) |  |  |  |  |  |  |  | CC[C@H](C)[C@H](NC(=O)[C@@H](NC(=O)[C@@H](N)CCCNC(=N)N)[C@@H](C)CC)C(=O)N[C@@H](CC(=O)O)C(=O)N[C@@H](CC(C)C)C(=O)N[C@@H](CC(C)C)C(=O)N[C@@H](Cc1c[nH]c2ccccc12)C(=O)N[C@@H](CCCNC(=N)N)C(=O)N[C@H](C(=O)N[C@@H](CCCNC(=N)N)C(=O)N[C@@H](CCCNC(=N)N)C(=O)N1CCC[C@H]1C(=O)N[C@@H](Cc1c[nH]c2ccccc12)C(=O)N[C@@H](CCCCN)C(=O)N1CCC[C@H]1C(=O)N[C@@H](CCCCN)C(=O)N[C@@H](Cc1ccccc1)C(=O)N[C@H](C(=O)N[C@H](C(=O)N[C@H](C(=O)N[C@@H](Cc1c[nH]c2ccccc12)C(=O)N[C@H](C(=O)N[C@H](C=O)CCCNC(=N)N)C(C)C)C(C)C)[C@@H](C)O)C(C)C)C(C)C [RIIDLLWRVRRPWKPKFVTVWVR] |
|  | 6.25 µM (≈ 13.4 µg/mL) |  | 12.5 µM (≈ 26.8 µg/mL) | 3.12 µM (≈ 6.7 µg/mL) | 3.12 µM (≈ 6.7 µg/mL) | 1.56 µM (≈ 3.35 µg/mL) | 0.78 µM (≈ 1.67 µg/mL) | 1.56 µM (≈ 3.35 µg/mL) | 3.12 µM (≈ 6.7 µg/mL) | CC[C@H](C)[C@H](NC(=O)[C@H](CCCCN)NC(=O)[C@H](CCCCN)NC(=O)[C@H](CC(C)C)NC(=O)[C@H](CCCCN)NC(=O)[C@H](CCCCN)NC(=O)CN)C(=O)NCC(=O)N[C@@H](CCC(N)=O)C(=O)N[C@@H](CCCCN)C(=O)N[C@H](C(=O)N[C@@H](CCCCN)C(=O)N[C@@H](CC(N)=O)C(=O)N[C@@H](Cc1ccccc1)C(=O)N[C@@H](Cc1ccccc1)C(=O)N[C@@H](CCC(N)=O)C(=O)N[C@@H](CCCCN)C(=O)N[C@@H](CC(C)C)C(=O)O)[C@@H](C)CC [GKKLKKIGQKIKNFFQKL] |
